{"source": "paper PMC5218480", "about": "(PLoS ONE, 2017)", "system": "MV-4-11 cells", "experiment": "Gene expression microarray analysis (Affymetrix PrimeView) and GSEA", "type": "cell-based, human", "set-up": "RFU PODN (11730768_x_at) / Fold change /veh PODN (11730768_x_at) / RFU LINC00158 (11744669_a_at) / Fold change /veh LINC00158 (11744669_a_at) / RFU DUSP10 (11751237_a_at) / Fold change /veh DUSP10 (11751237_a_at) / RFU ID3 (11757404_x_at) / Fold change /veh ID3 (11757404_x_at) / RFU PLEKHG5 (11737974_s_at) / Fold change /veh PLEKHG5 (11737974_s_at) / RFU LRRC4B (11730491_at) / Fold change /veh LRRC4B (11730491_at) / RFU GIMAP4 (11747438_a_at) / Fold change /veh GIMAP4 (11747438_a_at) / RFU KRT8 (11758183_x_at) / Fold change /veh KRT8 (11758183_x_at) / RFU CNN1 (11734310_a_at) / Fold change /veh CNN1 (11734310_a_at) / RFU VPS37D (11726825_at) / Fold change /veh VPS37D (11726825_at) / RFU C10orf10 (11716522_x_at) / Fold change /veh C10orf10 (11716522_x_at) / RFU KIR2DL2 /// KIR2DL4 /// KIR2DL5A /// KIR2DL5B /// KIR2DS1 /// KIR2DS2 /// KIR2DS3 /// KIR2DS4 /// KIR3DL3 /// KIR3DL3 /// KIR3DS1 (11738374_at) / Fold change /veh KIR2DL2 /// KIR2DL4 /// KIR2DL5A /// KIR2DL5B /// KIR2DS1 /// KIR2DS2 /// KIR2DS3 /// KIR2DS4 /// KIR3DL3 /// KIR3DL3 /// KIR3DS1 (11738374_at) / RFU C1QL1 (11718748_at) / Fold change /veh C1QL1 (11718748_at) / RFU TMPRSS4 (11747572_a_at) / Fold change /veh TMPRSS4 (11747572_a_at) / RFU HAMP (11756126_x_at) / Fold change /veh HAMP (11756126_x_at) / RFU RNFT2 (11725882_a_at) / Fold change /veh RNFT2 (11725882_a_at) / RFU NR4A2 (11747474_a_at) / Fold change /veh NR4A2 (11747474_a_at) / RFU ABCC12 (11746883_a_at) / Fold change /veh ABCC12 (11746883_a_at) / RFU TMEM136 (11760407_x_at) / Fold change /veh TMEM136 (11760407_x_at) / RFU CLDN22 /// WWC2 (11732394_at) / Fold change /veh CLDN22 /// WWC2 (11732394_at) / RFU HLA-DPB1 (11760878_x_at) / Fold change /veh HLA-DPB1 (11760878_x_at) / RFU SPINT1 (11716480_a_at) / Fold change /veh SPINT1 (11716480_a_at) / RFU GAP43 (11754022_s_at) / Fold change /veh GAP43 (11754022_s_at) / RFU A4GNT (11735810_at) / Fold change /veh A4GNT (11735810_at) / RFU PRB3 (11715151_x_at) / Fold change /veh PRB3 (11715151_x_at) / RFU TUBB4B (11761932_at) / Fold change /veh TUBB4B (11761932_at) / RFU CAPN14 (11732068_a_at) / Fold change /veh CAPN14 (11732068_a_at) / RFU TMCC2 (11721928_a_at) / Fold change /veh TMCC2 (11721928_a_at) / RFU IRGQ (11745062_a_at) / Fold change /veh IRGQ (11745062_a_at) / RFU FAM174B (11720279_a_at) / Fold change /veh FAM174B (11720279_a_at) / RFU TMPRSS4 (11748680_a_at) / Fold change /veh TMPRSS4 (11748680_a_at) / RFU FAM212B (11763350_a_at) / Fold change /veh FAM212B (11763350_a_at) / RFU PLEKHG5 (11743358_a_at) / Fold change /veh PLEKHG5 (11743358_a_at) / RFU ZSCAN30 (11745921_a_at) / Fold change /veh ZSCAN30 (11745921_a_at) / RFU CMKLR1 (11741424_a_at) / Fold change /veh CMKLR1 (11741424_a_at) / RFU LOC101060620 /// MAPK8IP1 (11723275_at) / Fold change /veh LOC101060620 /// MAPK8IP1 (11723275_at) / RFU SPTSSB (11747773_x_at) / Fold change /veh SPTSSB (11747773_x_at) / RFU PRSS12 (11739890_at) / Fold change /veh PRSS12 (11739890_at) / RFU BIN1 (11741810_x_at) / Fold change /veh BIN1 (11741810_x_at) / RFU WNT11 (11732464_a_at) / Fold change /veh WNT11 (11732464_a_at) / RFU C10orf10 (11716521_a_at) / Fold change /veh C10orf10 (11716521_a_at) / RFU C5orf56 (11738089_at) / Fold change /veh C5orf56 (11738089_at) / RFU CYB561 (11721691_x_at) / Fold change /veh CYB561 (11721691_x_at) / RFU ANKRD19P (11752326_a_at) / Fold change /veh ANKRD19P (11752326_a_at) / RFU OR2T12 /// OR2T33 /// OR2T8 (11738714_s_at) / Fold change /veh OR2T12 /// OR2T33 /// OR2T8 (11738714_s_at) / RFU VCAN (11748164_a_at) / Fold change /veh VCAN (11748164_a_at) / RFU JSRP1 (11732532_at) / Fold change /veh JSRP1 (11732532_at) / RFU KRTAP10-11 (11738290_x_at) / Fold change /veh KRTAP10-11 (11738290_x_at) / RFU MYO3A (11730013_a_at) / Fold change /veh MYO3A (11730013_a_at) / RFU EBF3 (11725865_a_at) / Fold change /veh EBF3 (11725865_a_at) / RFU CAMK2N1 (11719241_x_at) / Fold change /veh CAMK2N1 (11719241_x_at) / RFU C5orf56 (11738088_a_at) / Fold change /veh C5orf56 (11738088_a_at) / RFU OLFML3 (11715873_a_at) / Fold change /veh OLFML3 (11715873_a_at) / RFU LOC100653217 /// NTM (11731650_a_at) / Fold change /veh LOC100653217 /// NTM (11731650_a_at) / RFU MAPK11 (11762145_a_at) / Fold change /veh MAPK11 (11762145_a_at) / RFU FIZ1 (11724087_x_at) / Fold change /veh FIZ1 (11724087_x_at) / RFU OASL (11726364_x_at) / Fold change /veh OASL (11726364_x_at) / RFU SOX15 (11748057_x_at) / Fold change /veh SOX15 (11748057_x_at) / RFU CD79A (11719716_a_at) / Fold change /veh CD79A (11719716_a_at) / RFU HIST1H1D (11736915_at) / Fold change /veh HIST1H1D (11736915_at) / RFU CASKIN2 (11723855_a_at) / Fold change /veh CASKIN2 (11723855_a_at) / RFU LOC730098 (11760151_x_at) / Fold change /veh LOC730098 (11760151_x_at) / RFU OR4N2 (11742367_at) / Fold change /veh OR4N2 (11742367_at) / RFU PRRT2 (11749266_a_at) / Fold change /veh PRRT2 (11749266_a_at) / RFU SNX32 (11753110_a_at) / Fold change /veh SNX32 (11753110_a_at) / RFU CDHR5 (11726645_a_at) / Fold change /veh CDHR5 (11726645_a_at) / RFU RCAN1 (11760418_a_at) / Fold change /veh RCAN1 (11760418_a_at) / RFU FAM167A (11723789_a_at) / Fold change /veh FAM167A (11723789_a_at) / RFU FAM26E (11764081_at) / Fold change /veh FAM26E (11764081_at) / RFU ISYNA1 (11749810_s_at) / Fold change /veh ISYNA1 (11749810_s_at) / RFU ACY1 (11761880_at) / Fold change /veh ACY1 (11761880_at) / RFU 11764098_at / Fold change /veh 11764098_at / RFU SAMD14 (11745864_x_at) / Fold change /veh SAMD14 (11745864_x_at) / RFU NPB (11741838_a_at) / Fold change /veh NPB (11741838_a_at) / RFU TMPRSS6 (11731388_a_at) / Fold change /veh TMPRSS6 (11731388_a_at) / RFU KRTAP10-2 (11738614_at) / Fold change /veh KRTAP10-2 (11738614_at) / RFU ARHGAP8 /// PRR5-ARHGAP8 (11727945_x_at) / Fold change /veh ARHGAP8 /// PRR5-ARHGAP8 (11727945_x_at) / RFU KRTAP5-7 /// NADSYN1 (11734609_at) / Fold change /veh KRTAP5-7 /// NADSYN1 (11734609_at) / RFU RASL12 (11751679_a_at) / Fold change /veh RASL12 (11751679_a_at) / RFU CDKN2B (11736163_a_at) / Fold change /veh CDKN2B (11736163_a_at) / RFU PRF1 (11729649_at) / Fold change /veh PRF1 (11729649_at) / RFU, ZNF638 /// ZNF638-IT1 / Fold change vs veh, ZNF638 /// ZNF638-IT1 / RFU, PANK3 / Fold change vs veh, PANK3 / RFU, SH3YL1 / Fold change vs veh, SH3YL1 / RFU, ZEB2 / Fold change vs veh, ZEB2 / RFU, NRIP1 / Fold change vs veh, NRIP1 / RFU, PTTG1IP / Fold change vs veh, PTTG1IP / RFU, CAPN2 / Fold change vs veh, CAPN2 / RFU, MED14 / Fold change vs veh, MED14 / RFU, SNORA58 / Fold change vs veh, SNORA58 / RFU, C1orf63 / Fold change vs veh, C1orf63 / RFU, LRRFIP1 / Fold change vs veh, LRRFIP1 / RFU, NDUFAF7 / Fold change vs veh, NDUFAF7 / RFU, SLC12A2 / Fold change vs veh, SLC12A2 / RFU, IBTK / Fold change vs veh, IBTK / RFU, ESF1 / Fold change vs veh, ESF1 / Fold change vs veh, TMEM50B / RFU, TAOK1 / Fold change vs veh, TAOK1 / RFU, ACBD3 / Fold change vs veh, ACBD3 / RFU, TMA16 / Fold change vs veh, TMA16 / RFU, RWDD3 / Fold change vs veh, RWDD3 / RFU, BCAT1 / Fold change vs veh, BCAT1 / RFU, EDEM3 / Fold change vs veh, EDEM3 / RFU, TMEM33 / Fold change vs veh, TMEM33 / RFU, WDR75 / Fold change vs veh, WDR75 / RFU, AHCTF1 / Fold change vs veh, AHCTF1 / RFU, TFRC / Fold change vs veh, TFRC / RFU, ZDHHC17 / Fold change vs veh, ZDHHC17 / RFU, NOM1 / Fold change vs veh, NOM1 / RFU, ARL8B / Fold change vs veh, ARL8B / RFU, ZBTB11 / Fold change vs veh, ZBTB11 / RFU, TAMM41 / Fold change vs veh, TAMM41 / RFU, KIAA1704 /// LOC100996395 / Fold change vs veh, KIAA1704 /// LOC100996395 / RFU, ING1 / Fold change vs veh, ING1 / RFU, TRMT61B / Fold change vs veh, TRMT61B / RFU, FUBP3 / Fold change vs veh, FUBP3 / RFU, TP53 / Fold change vs veh, TP53 / RFU, TNKS2 / Fold change vs veh, TNKS2 / RFU, ZFP14 / Fold change vs veh, ZFP14 / RFU, ACTR2 / Fold change vs veh, ACTR2 / RFU, PPP3R1 / Fold change vs veh, PPP3R1 / RFU, PIK3R1 / Fold change vs veh, PIK3R1 / RFU, HNRNPA1 / Fold change vs veh, HNRNPA1 / RFU, RNF170 / Fold change vs veh, RNF170 / RFU, ZNF28 / Fold change vs veh, ZNF28 / RFU, RNGTT / Fold change vs veh, RNGTT / RFU, OGT / Fold change vs veh, OGT / RFU, BRD1 / Fold change vs veh, BRD1 / RFU, MARS / Fold change vs veh, MARS / RFU, ZNF655 / Fold change vs veh, ZNF655 / RFU, FAHD1 / Fold change vs veh, FAHD1 / RFU, BDP1 / Fold change vs veh, BDP1 / RFU, LRRCC1 / Fold change vs veh, LRRCC1 / RFU, ARID1A / Fold change vs veh, ARID1A / RFU, ZNF146 / Fold change vs veh, ZNF146 / RFU, ZNF330 / Fold change vs veh, ZNF330 / RFU, GPN3 / Fold change vs veh, GPN3 / RFU, C9orf123 / Fold change vs veh, C9orf123 / RFU, N4BP2L2 / Fold change vs veh, N4BP2L2 / RFU, ARFIP1 / Fold change vs veh, ARFIP1 / RFU, FAM179B / Fold change vs veh, FAM179B / RFU, BCL10 / Fold change vs veh, BCL10 / RFU, UHRF1BP1L / Fold change vs veh, UHRF1BP1L / RFU, BET1 / Fold change vs veh, BET1 / RFU, CNOT2 / Fold change vs veh, CNOT2 / RFU, ZNF268 / Fold change vs veh, ZNF268 / Fold change vs veh, ZNF507 / RFU, DGCR2 / Fold change vs veh, DGCR2 / RFU, WDSUB1 / Fold change vs veh, WDSUB1 / Fold change vs veh, HSP90B1 /// MIR3652 / RFU, ADSS / Fold change vs veh, ADSS / RFU, GK / Fold change vs veh, GK / RFU, ZNF148 / Fold change vs veh, ZNF148 / RFU, TAF9 / Fold change vs veh, TAF9 / RFU, SLC1A5 / Fold change vs veh, SLC1A5 / RFU, SLMO2 / Fold change vs veh, SLMO2 / RFU, ABCC4 / Fold change vs veh, ABCC4 / RFU, LOC101060439 /// RAP1B / Fold change vs veh, LOC101060439 /// RAP1B / RFU, RFX7 / Fold change vs veh, RFX7 / RFU, GTPBP10 / Fold change vs veh, GTPBP10 / RFU, CNEP1R1 / Fold change vs veh, CNEP1R1 / RFU, BIVM-ERCC5 /// ERCC5 / Fold change vs veh, BIVM-ERCC5 /// ERCC5 / RFU, ILF3 / Fold change vs veh, ILF3 / RFU 11762660_at / Fold change /veh 11762660_at / RFU VCAN (11757783_s_at) / Fold change /veh VCAN (11757783_s_at) / RFU DDX43 (11728927_at) / Fold change /veh DDX43 (11728927_at) / RFU KRT8 (11758188_x_at) / Fold change /veh KRT8 (11758188_x_at) / RFU NKD1 (11759106_at) / Fold change /veh NKD1 (11759106_at) / RFU SRD5A1 (11742802_a_at) / Fold change /veh SRD5A1 (11742802_a_at) / RFU TPSAB1 /// TPSB2 (11721975_s_at) / Fold change /veh TPSAB1 /// TPSB2 (11721975_s_at) / RFU GSTM3 (11746129_a_at) / Fold change /veh GSTM3 (11746129_a_at) / RFU IL23R (11737362_x_at) / Fold change /veh IL23R (11737362_x_at) / RFU TMEM51 (11727254_a_at) / Fold change /veh TMEM51 (11727254_a_at) / RFU PIWIL2 (11732686_x_at) / Fold change /veh PIWIL2 (11732686_x_at) / RFU ORM1 (11744905_x_at) / Fold change /veh ORM1 (11744905_x_at) / RFU CCDC152 (11743942_at) / Fold change /veh CCDC152 (11743942_at) / RFU ECM1 (11717891_a_at) / Fold change /veh ECM1 (11717891_a_at) / RFU IL23R (11748794_a_at) / Fold change /veh IL23R (11748794_a_at) / RFU TNFAIP8L3 (11732012_x_at) / Fold change /veh TNFAIP8L3 (11732012_x_at) / RFU MBOAT4 (11741988_at) / Fold change /veh MBOAT4 (11741988_at) / RFU 11764193_at / Fold change /veh 11764193_at / RFU TMEM53 (11763286_at) / Fold change /veh TMEM53 (11763286_at) / RFU MAGEB2 (11727129_at) / Fold change /veh MAGEB2 (11727129_at) / RFU TMEM200A (11744735_a_at) / Fold change /veh TMEM200A (11744735_a_at) / RFU CCDC152 (11751479_a_at) / Fold change /veh CCDC152 (11751479_a_at) / RFU FAM211A (11726209_a_at) / Fold change /veh FAM211A (11726209_a_at) / RFU RGS16 (11746705_a_at) / Fold change /veh RGS16 (11746705_a_at) / RFU VCAN (11755009_s_at) / Fold change /veh VCAN (11755009_s_at) / RFU RHOB (11743442_s_at) / Fold change /veh RHOB (11743442_s_at) / RFU RGS16 (11720943_a_at) / Fold change /veh RGS16 (11720943_a_at) / RFU RGS16 (11720944_at) / Fold change /veh RGS16 (11720944_at) / RFU, VPS4B / Fold change vs veh, VPS4B / RFU, CREB1 / Fold change vs veh, CREB1 / RFU, DNAJC13 / Fold change vs veh, DNAJC13 / RFU, GNAQ / Fold change vs veh, GNAQ / RFU, CDK5R1 / Fold change vs veh, CDK5R1 / RFU, ZRANB3 / Fold change vs veh, ZRANB3 / RFU, CUL4A / Fold change vs veh, CUL4A / RFU, CCNY / Fold change vs veh, CCNY / RFU, UFL1 / Fold change vs veh, UFL1 / RFU, COG3 / Fold change vs veh, COG3 / RFU, DIAPH2 / Fold change vs veh, DIAPH2 / RFU, SKA2 / Fold change vs veh, SKA2 / RFU, AFF3 / Fold change vs veh, AFF3 / RFU, LMF1 / Fold change vs veh, LMF1 / RFU, IPO11 / Fold change vs veh, IPO11 / RFU, DFFB / Fold change vs veh, DFFB / RFU, FOXP1 / Fold change vs veh, FOXP1 / RFU, CARD8 / Fold change vs veh, CARD8 / RFU, STRN3 / Fold change vs veh, STRN3 / RFU, ADK / Fold change vs veh, ADK / RFU, RASSF2 / Fold change vs veh, RASSF2 / RFU, WIPF1 / Fold change vs veh, WIPF1 / RFU, LARP1B / Fold change vs veh, LARP1B / RFU, RASA1 / Fold change vs veh, RASA1 / RFU, RB1 / Fold change vs veh, RB1 / RFU, PPFIA1 / Fold change vs veh, PPFIA1 / RFU, MAT2A / Fold change vs veh, MAT2A / RFU, CCT5 / Fold change vs veh, CCT5 / RFU, WDR92 / Fold change vs veh, WDR92 / RFU, CUX1 / Fold change vs veh, CUX1 / RFU, TTC7A / Fold change vs veh, TTC7A / RFU, TMEM135 / Fold change vs veh, TMEM135 / RFU, DEPTOR / Fold change vs veh, DEPTOR / RFU, CPM / Fold change vs veh, CPM / RFU, DNAJB6 / Fold change vs veh, DNAJB6 / RFU, CACNA2D3 / Fold change vs veh, CACNA2D3 / RFU, DTX4 / Fold change vs veh, DTX4 / RFU, TFCP2 / Fold change vs veh, TFCP2 / RFU, GMCL1 /// GMCL1P1 / Fold change vs veh, GMCL1 /// GMCL1P1 / RFU, AEBP2 / Fold change vs veh, AEBP2 / RFU, SNHG1 /// SNORD22 /// SNORD25 /// SNORD26 /// SNORD27 /// SNORD28 /// SNORD29 /// SNORD31 / Fold change vs veh, SNHG1 /// SNORD22 /// SNORD25 /// SNORD26 /// SNORD27 /// SNORD28 /// SNORD29 /// SNORD31 / Fold change (Aza/veh), C12orf56 (ProbeSet 11735607_a_at) / Fold change (ACY-1035/veh), C12orf56 (ProbeSet 11735607_a_at) / Fold change (Aza/veh), FGFR1OP (ProbeSet 11751329_s_at) / Fold change (ACY-1035/veh), FGFR1OP (ProbeSet 11751329_s_at) / Fold change (Aza/veh), VPS36 (ProbeSet 11739960_a_at) / Fold change (ACY-1035/veh), VPS36 (ProbeSet 11739960_a_at) / RFU SYPL1 (11715823_x_at) / Fold change /veh SYPL1 (11715823_x_at) / RFU IGFBP7 (11715501_s_at) / Fold change /veh IGFBP7 (11715501_s_at) / RFU REEP3 (11722064_at) / Fold change /veh REEP3 (11722064_at) / RFU IGLL1 (11728026_x_at) / Fold change /veh IGLL1 (11728026_x_at): dose or concentration left out as unconfirmed", "settings": "MV-4-11 cells, 48 hours", "data": [{"smiles": "Nc1ncn([C@@H]2O[C@H](CO)[C@@H](O)[C@H]2O)c(=O)n1", "note": "[azacitidine]", "values": [{"measurement": "RFU RNFT2 (11725882_a_at)", "result": 15.64, "unit": "RFU"}]}]}
